US11976083B2, “Inhibitors of peptidylarginine deiminases” (Gilead Sciences, Inc., priority 2020, dated 2024)

Target: T1, human PAD4 (Homo sapiens, UniProt Q9UM07)
T1 construct: human PAD4 (NM_012387), A2-P663, was PCR amplified; His-SUMO (N, cleaved yes); made in house; host or cells: E. coli BL21(DE3)
Assay: In vitro PAD4 BAEE biochemical assay
Details: BAEE substrate 3 mM, 5 nM PAD4, 2 mM calcium chloride; geometric mean of multiple experiments
Summary of the method: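 Recombinant PAD4 (5 nM final) with 2 mM CaCl2 was preincubated with compound for 30 min at 25 °C in MOPS pH 7.6 buffer with DTT, then reacted with 3 mM BAEE for 2 h at 25 °C. Released ammonia was detected fluorimetrically with o-phthalaldehyde/DTT; IC50 from four-parameter fit, geometric mean of experiments.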

T1 sequence (Q9UM07 2-663): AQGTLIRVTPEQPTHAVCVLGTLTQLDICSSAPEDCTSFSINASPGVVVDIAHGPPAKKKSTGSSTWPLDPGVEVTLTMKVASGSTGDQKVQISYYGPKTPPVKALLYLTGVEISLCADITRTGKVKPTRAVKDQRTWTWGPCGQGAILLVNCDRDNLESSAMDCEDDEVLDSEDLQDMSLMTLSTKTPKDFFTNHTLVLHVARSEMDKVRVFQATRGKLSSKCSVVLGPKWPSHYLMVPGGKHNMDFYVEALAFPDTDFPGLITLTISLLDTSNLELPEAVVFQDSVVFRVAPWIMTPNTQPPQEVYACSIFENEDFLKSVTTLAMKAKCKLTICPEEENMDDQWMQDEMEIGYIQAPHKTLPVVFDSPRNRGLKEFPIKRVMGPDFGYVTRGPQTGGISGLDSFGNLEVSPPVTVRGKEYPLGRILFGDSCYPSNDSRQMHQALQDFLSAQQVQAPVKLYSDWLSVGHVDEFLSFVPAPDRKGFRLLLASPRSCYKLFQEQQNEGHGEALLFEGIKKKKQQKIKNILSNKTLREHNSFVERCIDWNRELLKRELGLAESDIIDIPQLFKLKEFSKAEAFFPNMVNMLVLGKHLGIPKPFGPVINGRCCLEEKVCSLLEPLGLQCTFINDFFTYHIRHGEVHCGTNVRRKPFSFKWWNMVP

SMILES	IC50
COc1cc(C(=O)N2CCC[C@@H](N)C2)cc2nc(-c3cc4ccc5nc4n3C[C@H]3C[C@H]3CCCC(C)(C)C(=O)N[C@@H]5C)n(C)c12 [Example 119, (3~{S},5~{R},12~{R})-18-[5-[(3~{R})-3-aminopiperidine-1-carbonyl]-7-methoxy-1-methyl-benzimidazol-2-yl]-9,9,12-trimethyl-1,11,20-triazatetracyclo[11.5.2.0^{3,5}.0^{16,19}] icosa-13(20),14,16(19),17-tetraen-10-one]	60 nM
COc1cc(C(=O)N2[C@H]3CC[C@@H]2[C@H](N)C3)cc2nc(-c3cc4ccc5nc4n3CCCCc3cccc(c3F)C(=O)N[C@@H]5C)n(C)c12 [Example 38, (2~{R})-15-[5-[(1~{R},2~{R},4~{S})-2-amino-7-azabicyclo[2.2.1]heptane-7-carbonyl]-7-methoxy-1-methyl-benzimidazol-2-yl]-22-fluoro-2-methyl-3,14,20-triazatetracyclo[12.5.2.1^{5,9}.0^{17,21}] docosa-1(20),5,7,9(22),15,17(21),18-heptaen-4-one]	1200 nM
COc1cc(C(=O)N2CCC[C@@H](N)[C@H]2C(F)F)cc2nc(-c3cc4ccc5nc4n3CC(F)(F)CCC[C@@H]3C[C@H]3C(=O)N[C@@H]5C)n(C)c12 [Example 647, (2~{R},5~{R},7~{R})-14-[5-[(2~{S},3~{R})-3-amino-2-(difluoromethyl)piperidine-1-carbonyl]-7-methoxy-1-methyl-benzimidazol-2-yl]-11,11-difluoro-2-methyl-3,13,19-triazatetracyclo[11.5.2.0^ {5,7}.0^{16,20}] icosa-1(19),14,16(20), 17-tetraen-4-one]	58 nM
COc1cc(C(=O)N2CCC[C@@H](N)C2)cc2nc(-c3cc4ccc5nc4n3C[C@@H]3C[C@H]3C(OC)CCCC(=O)N[C@@H]5C)n(C)c12 (some centres unmarked) [Example 270, (3~{R},5~{R},12~{R})-18-[5-[(3~{R})-3-aminopiperidine-1-carbonyl]-7-methoxy-1-methyl-benzimidazol-2-yl]-6-methoxy-12-methyl-1,11,20-triazatetracyclo[11.5.2.0^{3,5}.0^{16,19}] icosa-13(20),14,16(19),17-tetraen-10-one]	90 nM
COc1cc(C(=O)N2CCC[C@@H](N)C2)cc2nc(-c3cc4ccc5nc4n3CCCCCC(C)(C)C(=O)N[C@@H]5C)c(C)n12 [Example 106, (10~{R})-16-[7-[(3~{R})-3-aminopiperidine-1-carbonyl]-5-methoxy-3-methyl-imidazo[1,2-a]pyridin-2-yl]-7,7,10-trimethyl-1,9,18-triazatricyclo[9.5.2.0^{14,17}]octadeca-11(18),12,14(17),15-tetraen-8-one]	201 nM
COc1cc(C(=O)N2C[C@H](N)[C@@H]3CC[C@H]2C3)cc2nc(-c3cc4ccc5nc4n3CCCCCc3nc(Cl)ccc3C(=O)N[C@@H]5C)c(C3CC3)n12 [Example 768, (2~{R})-17-[7-[(1~{S},4~{R}, 5~{R})-4-amino-2-azabicyclo [3.2.1]octane-2-carbonyl]-3-cyclopropyl-5-methoxy-imidazo[1,2-a]pyridin-2-yl]-8-chloro-2-methyl-3,9,16,22-tetrazatetracyclo[14.5.2.0^ {5,10}.0^{19,23}]tricosa-1(22),5(10),6,8,17,19(23),20-heptaen-4-one]	59 nM
COc1cc(C(=O)N2CCC[C@@H](N)C2)cc2nc(-c3cc4ccc5nc4n3CCCOC[C@@H]3C[C@@H]3C(=O)N[C@@H]5C)n(C)c12 [Example 309, (2~{R},5~{S},7~{R})-14-[5-[(3~{R})-3-aminopiperidine-1-carbonyl]-7-methoxy-1-methyl-benzimidazol-2-yl]-2-methyl-9-oxa-3,13,19-triazatetracyclo[11.5.2.0^{5,7}.0^{16,20}] icosa-1(19),14,16(20),17-tetraen-4-one]	1380 nM
COc1cc(C(=O)N2CC[C@@H](OC)[C@@H](N)C2)cc2nc(-c3cc4ccc5nc4n3CCCCCCC3(CC3)C(=O)N[C@@H]5C)n(C)c12 [Example 62, (11~{R})-17-[5-[(3~{S},4~{R})-3-amino-4-methoxy-piperidine-1-carbonyl]-7-methoxy-1-methyl-benzimidazol-2-yl]-11-methyl-spiro[1,10,19-triazatricyclo[10.5.2.0^{15,18}]nonadeca-12(19),13,15(18),16-tetraene-8,1′-cyclopropane]-9-one]	150 nM

Continued, values first:

IC50	SMILES
25 nM	C[C@H]1NC(=O)[C@@H]2C[C@H]2CCCC(F)(F)Cn2c(-c3nc4cc(C(=O)N5C[C@H](N)[C@@H]6CC[C@H]5C6)cc(F)c4n3C3CC3)cc3ccc1nc32 [Example 438, (2~{R},5~{R},7~{R})-14-[5-[(1~{S},4~{R},5~{R})-4-amino-2-azabicyclo[3.2.1]octane-2-carbonyl]-1-cyclopropyl-7-fluoro-benzimidazol-2-yl]-11,11-difluoro-2-methyl-3,13,19-triazatetracyclo[11.5.2.0^{5,7}.0^{16,20}] icosa-1(19),14,16(20),17-tetraen-4-one]
25 nM	C[C@H]1NC(=O)c2cnc(Cl)cc2CCCCCn2c(-c3nc4cc(C(=O)N5C[C@H](N)[C@@H]6CC[C@H]5C6)cc(F)c4n3C3CC3)cc3ccc1nc32 [Example 810, (2~{R})-17-[5-[(1~{S),4~{R},5~ {R})-4-amino-2-azabicyclo [3.2.1]octane-2-carbonyl]-1-cyclopropyl-7-fluoro-benzimidazol-2-yl]-8-chloro-2-methyl-3,7,16,22-tetrazatetracyclo[14.5.2.0^ {5,10}.0^{19,23}] tricosa-1(21),5(10),6,8,17,19, 22-heptaen-4-one]
17 nM	C[C@H]1NC(=O)c2ccc(Cl)nc2CCCCCn2c(-c3nc4cc(C(=O)N5C[C@H]6CC[C@@H]5[C@@H]6N)cc(F)c4n3C3CC3)cc3ccc1nc32 [Example 798, (2~{R})-17-[5-[(1~{R},4~{R}, 7~{R})-7-amino-2-azabicyclo [2.2.1]heptane-2-carbonyl]-1-cyclopropyl-7-fluoro-benzimidazol-2-yl]-8-chloro-2-methyl-3,9,16,22-tetrazatetracyclo[14.5.2.0^ {5,10}.0^{19,23}]tricosa-1(21),5(10),6,8,17,19,22-heptaen-4-one]
33 nM	COc1cc(C(=O)N2CC[C@@H](OC)[C@@H](N)C2)cc2nc(-c3cc4ccc5nc4n3CC(F)(F)CCC[C@@H]3C[C@H]3C(=O)N[C@@H]5C)n(C)c12 [Example 848, (2~{R},5~{R},7~{R})-14-[5-[(3~{S},4~{R})-3-amino-4-methoxy-piperidine-1-carbonyl]-7-methoxy-1-methyl-benzimidazol-2-yl]-11,11-difluoro-2-methyl-3,13,19-triazatetracyclo[11.5.2.0^ {5,7}.0^{16,20}]icosa-1(19),14,16(20),17-tetraen-4-one]
22 nM	C[C@H]1NC(=O)[C@@H]2C[C@@]2(F)CCCC(F)(F)Cn2c(-c3nc4cc(C(=O)N5C[C@H](N)[C@@H]6CC[C@H]5C6)cc(F)c4n3C3CC3)cc3ccc1nc32 [Example 449, (2~{R},5~{S},7~{S})-14-[5-[(1~{S},4~{R},5~{R})-4-amino-2-azabicyclo[3.2.1]octane-2-carbonyl]-1-cyclopropyl-7-fluoro-benzimidazol-2-yl]-7,11,11-trifluoro-2-methyl-3,13,19-triazatetracyclo[11.5.2.0^{5,7}.0^{16,20}] icosa-1(19),14,16(20),17-tetraen-4-one]
34 nM	C[C@H]1NC(=O)c2ccc(Cl)nc2CC[C@@H]2C[C@H]2Cn2c(-c3nc4cc(C(=O)N5C[C@H](N)[C@@H]6CC[C@H]5C6)cc(F)c4n3C3CC3)cc3ccc1nc32 [Example 879, (3~{R},5~{R},16~{R})-22-[5-[(1~{S},4~{R}, 5~{R})-4-amino-2-azabicyclo[3.2.1]octane-2-carbonyl]-1-cyclopropyl-7-fluoro-benzimidazol-2-yl]-10-chloro-16-methyl-1,9,15,24-tetrazapentacyclo[15.5.2.0^ {3,5}.0^{8,13}.0^{20,23}] tetracosa-8(13),9,11,17(24), 18,20(23),21-heptaen-14-one]
46 nM	COc1cc(C(=O)N2[C@H]3CC[C@@H]2[C@H](N)C3)cc2nc(-c3cc4ccc5nc4n3CCCCCCC(C)(C)C(=O)N[C@@H]5C)c(C)n12 [Example 121, (11~{R})-17-[7-[(1~{R},2~{R},4~{S})-2-amino-7-azabicyclo[2.2.1]heptane-7-carbonyl]-5-methoxy-3-methyl-imidazo[1,2-a]pyridin-2-yl]-8,8,11-trimethyl-1,10,19-triazatricyclo[10.5.2.0^{15,18}]nonadeca-12(19),13,15(18),16-tetraen-9-one]
57 nM	COc1cc(C(=O)N2[C@H]3CC[C@@H]2[C@H](N)C3)cc2nc(-c3cc4ccc5nc4n3CCCCC[C@H]3C[C@@H]3C(=O)N[C@@H]5C)n(C)c12 (single isomer, unassigned) [Example 224, (2˜{R},5˜{S},7˜{S})-14-[5-[(1˜{R},2˜{R},4˜{S})-2-amino-7-azabicyclo[2.2.1]heptane-7-carbonyl]-7-methoxy-1-methyl-benzimidazol-2-yl]-2-methyl-3,13,19-triazatetracyclo[11.5.2.0^{5,7}.0^{16,20}]icosa-1(19),14,16(20),17-tetraen-4-one]
13 nM	COCCn1c(-c2cc3ccc4nc3n2CCCCC[C@@H]2C[C@H]2C(=O)N[C@@H]4C)nc2cc(C(=O)N3C[C@H](N)[C@@H]4CC[C@H]3C4)cc(OC)c21 [Example 817, (2~{R},5~{R},7~{R})-14-[5-[(1~{S},4~{R},5~{R})-4-amino-2-[3.2.1]octane-2-carbonyl]-7-methoxy-1-(2-methoxyethyl)benzimidazol-2-yl]-2-methyl-3,13,19-triazatetracyclo[11.5.2.0^ {5,7}.0^{16,20}]icosa-1(18),14,16,19-tetraen-4-one]
